Data: patent EP0726261A1, “Herbidical 1,2,4 thiadiazoles” (American Cyanamid Company, priority 1995, dated 1996)

How the values were obtained:
Type in all cases: in vivo
Avena fatua [1] = experiment: Herbicidal activity, preemergence test (Example 66); parameters: key: A rating of 0 indicates growth as untreated control; a rating of 9 indicates death; details: pre; 1000 g/ha; assessed visually twenty days after spraying
Experimental: (§1) To evaluate their herbicidal activity, compounds according to the invention are tested using a representative range of plants: ZEAMX Zea mays ORYSA Oryza sativa GLXMA Glycine max BEAVA Beta vulgaris LIUUT Linum usitatissimum AVEFA Avena fatua ECHCG Echinochloa crus-galli SINAL Sinapsis alba
(§2) The tests fall into two categories, preemergence and postemergence. The preemergence tests involve spraying a liquid formulation of the compound onto the soil in which the seeds of the plant species mentioned above have recently been sown. The postemergence tests involve spraying a liquid formulation of the compound onto seedling plants of the above species.
(§3) The soil used in the tests is a prepared horticultural loam.
(§4) The formulations used in the tests are prepared from solutions of the test compounds in acetone containing 0.4% by weight of an alkylphenol/ethylene oxide condensate available under the trademark TRITON X-155. These acetone solutions are diluted with water and the resulting formulations applied at dosage levels corresponding to 1000 g of active material per hectare in a volume equivalent to 900 litres per hectare.
(§5) In the preemergence tests, untreated sown soil, and in the postemergence tests, untreated soil bearing seedling plants, are used as controls.
(§6) The herbicidal effects of the test compounds are assessed visually twenty days after spraying the foliage and the soil and are recorded on a 0-9 scale. A rating of 0 indicates growth as untreated control, a rating of 9 indicates death. An increase of 1 unit on the linear scale approximates to an 11% increase in the level of effect.

Beta vulgaris [2] = experiment: as above; parameters: key: A rating of 0 indicates growth as untreated control; a rating of 9 indicates death; details: pre; 1000 g/ha; assessed visually twenty days after spraying
Experimental: as §1, §2, §3, §4, §5, §6

Echinochloa crus-galli [3] = experiment: as above; parameters: key: A rating of 0 indicates growth as untreated control; a rating of 9 indicates death; details: pre; 1000 g/ha; assessed visually twenty days after spraying
Experimental: as §1, §2, §3, §4, §5, §6

Glycine max [4] = experiment: as above; parameters: key: A rating of 0 indicates growth as untreated control; a rating of 9 indicates death; details: pre; 1000 g/ha; assessed visually twenty days after spraying
Experimental: as §1, §2, §3, §4, §5, §6

Linum usitatissimum [5] = experiment: as above; parameters: key: A rating of 0 indicates growth as untreated control; a rating of 9 indicates death; details: pre; 1000 g/ha; assessed visually twenty days after spraying
Experimental: as §1, §2, §3, §4, §5, §6

Oryza sativa [6] = experiment: as above; parameters: key: A rating of 0 indicates growth as untreated control; a rating of 9 indicates death; details: pre; 1000 g/ha; assessed visually twenty days after spraying
Experimental: as §1, §2, §3, §4, §5, §6

Sinapsis alba [7] = experiment: as above; parameters: key: A rating of 0 indicates growth as untreated control; a rating of 9 indicates death; details: pre; 1000 g/ha; assessed visually twenty days after spraying
Experimental: as §1, §2, §3, §4, §5, §6

Zea mays [8] = experiment: as above; parameters: key: A rating of 0 indicates growth as untreated control; a rating of 9 indicates death; details: pre; 1000 g/ha; assessed visually twenty days after spraying
Experimental: as §1, §2, §3, §4, §5, §6

Glycine max [9] = experiment: Herbicidal activity, postemergence test (Example 66); details: post; 1000 g/ha; assessed visually twenty days after spraying
Experimental: as §1, §2, §3, §4, §5, §6

Avena fatua [10] = experiment: as above; parameters: key: A rating of 0 indicates growth as untreated control; a rating of 9 indicates death; details: post; 1000 g/ha; assessed visually twenty days after spraying
Experimental: as §1, §2, §3, §4, §5, §6

Beta vulgaris [11] = experiment: as above; parameters: key: A rating of 0 indicates growth as untreated control; a rating of 9 indicates death; details: post; 1000 g/ha; assessed visually twenty days after spraying
Experimental: as §1, §2, §3, §4, §5, §6

Echinochloa crus-galli [12] = experiment: as above; parameters: key: A rating of 0 indicates growth as untreated control; a rating of 9 indicates death; details: post; 1000 g/ha; assessed visually twenty days after spraying
Experimental: as §1, §2, §3, §4, §5, §6

Linum usitatissimum [13] = experiment: as above; parameters: key: A rating of 0 indicates growth as untreated control; a rating of 9 indicates death; details: post; 1000 g/ha; assessed visually twenty days after spraying
Experimental: as §1, §2, §3, §4, §5, §6

Oryza sativa [14] = experiment: as above; parameters: key: A rating of 0 indicates growth as untreated control; a rating of 9 indicates death; details: post; 1000 g/ha; assessed visually twenty days after spraying
Experimental: as §1, §2, §3, §4, §5, §6

Sinapsis alba [15] = experiment: as above; parameters: key: A rating of 0 indicates growth as untreated control; a rating of 9 indicates death; details: post; 1000 g/ha; assessed visually twenty days after spraying
Experimental: as §1, §2, §3, §4, §5, §6

Zea mays [16] = experiment: as above; parameters: key: A rating of 0 indicates growth as untreated control; a rating of 9 indicates death; details: post; 1000 g/ha; assessed visually twenty days after spraying
Experimental: as §1, §2, §3, §4, §5, §6

SMILES | herbicidal effects on a 0-9 scale, AVEFA (Avena fatua [1]) | herbicidal effects on a 0-9 scale, BEAVA (Beta vulgaris [2]) | herbicidal effects on a 0-9 scale, ECHCG (Echinochloa crus-galli [3]) | herbicidal effects on a 0-9 scale, GLXMA (Glycine max [4]) | herbicidal effects on a 0-9 scale, LIUUT (Linum usitatissimum [5]) | herbicidal effects on a 0-9 scale, ORYSA (Oryza sativa [6]) | herbicidal effects on a 0-9 scale, SINAL (Sinapsis alba [7]) | herbicidal effects on a 0-9 scale, ZEAMX (Zea mays [8]) | herbicidal effects on a 0-9 scale, GLXMA (Glycine max [9]) | herbicidal effects on a 0-9 scale, AVEFA (Avena fatua [10]) | herbicidal effects on a 0-9 scale, BEAVA (Beta vulgaris [11]) | herbicidal effects on a 0-9 scale, ECHCG (Echinochloa crus-galli [12]) | herbicidal effects on a 0-9 scale, LIUUT (Linum usitatissimum [13]) | herbicidal effects on a 0-9 scale, ORYSA (Oryza sativa [14]) | herbicidal effects on a 0-9 scale, SINAL (Sinapsis alba [15]) | herbicidal effects on a 0-9 scale, ZEAMX (Zea mays [16])
C=CCNC(=O)c1nc(-c2ccc(F)cc2)ns1 [Example 18] | 0 | 0 | 0 | 0 | 0 | 0 | 0 | 0 | 6 | 2 | 8 | 0 | 5 | 0 | 9 | 0
C[C@H](NC(=O)c1nsc(-c2ccc(Cl)cc2)n1)c1ccccc1 [Example 24] | 0 | 0 | 0 | 0 | 0 | 0 | 0 | 0 | 5 | 0 | 8 | 2 | 5 | 0 | 8 | 0
CC(NC(=O)c1nc(-c2ccc(F)cc2)ns1)c1cccs1 (racemic) [Example 15, (R/S)-3-(4-Fluorophenyl)-[1,2,4]thiadiazole-5-carboxylic acid, [1-(2-thienyl)ethyl]amide] | 0 | 0 | 0 | 0 | 0 | 0 | 0 | 0 | 7 | 4 | 9 | 7 | 7 | 0 | 9 | 3
CC(C)(C)c1nsc(C(=O)NCc2cccs2)n1 [Example 7] | 0 | 0 | 0 | 0 | 0 | 0 | 0 | 0 | 3 | 0 | 8 | 0 | 4 | 0 | 8 | 0
CC(C)Cc1nsc(C(=O)NC(C)c2cccs2)n1 (racemic) [Example 12, (R/S)-3-Isobutyl-[1,2,4]thiadiazole-5-carboxylic acid, [1-(2-thienyl)ethyl]amide] | 0 | 5 | 5 | 0 | 2 | 0 | 5 | 0 | 5 | 2 | 8 | 9 | 8 | 0 | 9 | 0
O=C(NCc1cccs1)c1nc(-c2ccc(F)cc2)ns1 [Example 14] | 0 | 0 | 0 | 0 | 0 | 0 | 0 | 0 | 2 | 0 | 8 | 2 | 5 | 0 | 8 | 0
C[C@H](NC(=O)c1nc(-c2ccc(F)cc2)ns1)c1ccccc1 [Example 16, (S)-3-(4-Fluorophenyl)-[1,2,4]thiadiazole-5-carboxylic acid, 1-(phenylethyl)amide] | 0 | 0 | 0 | 0 | 0 | 0 | 0 | 0 | 6 | 7 | 9 | 8 | 7 | 2 | 9 | 0
